How the values were obtained:
Type in all cases: cell-based
[1] = target: T1, ATP-dependent translocase ABCB1 (Homo sapiens, UniProt P08183); test: Inhibition of human ABCB1 expressed in mouse L5178 cells assessed as 75% inhibition of cell proliferation at compound-doxorubicin ratio of 20.4:1 after 48 hrs by MTT assay; details: l5178, 48 h
[2] = target: T1, ATP-dependent translocase ABCB1; test: Inhibition of human ABCB1 expressed in mouse L5178 cells assessed as 95% inhibition of cell proliferation at compound-doxorubicin ratio of 20.4:1 after 48 hrs by MTT assay; details: l5178, 48 h
[3] = target: T1, ATP-dependent translocase ABCB1; test: Inhibition of human ABCB1 pump expressed in mouse L5178 cells assessed as fluorescence activity ratio at 20 uM for 10 mins by flow cytometry relative to control; details: l5178, 10 min
[4] = target: T1, ATP-dependent translocase ABCB1; test: Inhibition of human ABCB1 expressed in mouse L5178 cells assessed as 50% inhibition of cell proliferation at compound-doxorubicin ratio of 20.4:1 after 48 hrs by MTT assay; details: l5178, 48 h
[5] = target: T1, ATP-dependent translocase ABCB1; test: Inhibition of human ABCB1 expressed in mouse L5178 cells assessed as 95% inhibition of cell proliferation at compound-doxorubicin ratio of 40.8:1 after 48 hrs by MTT assay; details: l5178, 48 h
[6] = target: T1, ATP-dependent translocase ABCB1; test: Inhibition of human ABCB1 expressed in mouse L5178 cells assessed as 75% inhibition of cell proliferation at compound-doxorubicin ratio of 40.8:1 after 48 hrs by MTT assay; details: l5178, 48 h
[7] = target: T1, ATP-dependent translocase ABCB1; test: Inhibition of human ABCB1 expressed in mouse L5178 cells assessed as 50% inhibition of cell proliferation at compound-doxorubicin ratio of 40.8:1 after 48 hrs by MTT assay; details: l5178, 48 h

T1 sequence (P08183 whole entry): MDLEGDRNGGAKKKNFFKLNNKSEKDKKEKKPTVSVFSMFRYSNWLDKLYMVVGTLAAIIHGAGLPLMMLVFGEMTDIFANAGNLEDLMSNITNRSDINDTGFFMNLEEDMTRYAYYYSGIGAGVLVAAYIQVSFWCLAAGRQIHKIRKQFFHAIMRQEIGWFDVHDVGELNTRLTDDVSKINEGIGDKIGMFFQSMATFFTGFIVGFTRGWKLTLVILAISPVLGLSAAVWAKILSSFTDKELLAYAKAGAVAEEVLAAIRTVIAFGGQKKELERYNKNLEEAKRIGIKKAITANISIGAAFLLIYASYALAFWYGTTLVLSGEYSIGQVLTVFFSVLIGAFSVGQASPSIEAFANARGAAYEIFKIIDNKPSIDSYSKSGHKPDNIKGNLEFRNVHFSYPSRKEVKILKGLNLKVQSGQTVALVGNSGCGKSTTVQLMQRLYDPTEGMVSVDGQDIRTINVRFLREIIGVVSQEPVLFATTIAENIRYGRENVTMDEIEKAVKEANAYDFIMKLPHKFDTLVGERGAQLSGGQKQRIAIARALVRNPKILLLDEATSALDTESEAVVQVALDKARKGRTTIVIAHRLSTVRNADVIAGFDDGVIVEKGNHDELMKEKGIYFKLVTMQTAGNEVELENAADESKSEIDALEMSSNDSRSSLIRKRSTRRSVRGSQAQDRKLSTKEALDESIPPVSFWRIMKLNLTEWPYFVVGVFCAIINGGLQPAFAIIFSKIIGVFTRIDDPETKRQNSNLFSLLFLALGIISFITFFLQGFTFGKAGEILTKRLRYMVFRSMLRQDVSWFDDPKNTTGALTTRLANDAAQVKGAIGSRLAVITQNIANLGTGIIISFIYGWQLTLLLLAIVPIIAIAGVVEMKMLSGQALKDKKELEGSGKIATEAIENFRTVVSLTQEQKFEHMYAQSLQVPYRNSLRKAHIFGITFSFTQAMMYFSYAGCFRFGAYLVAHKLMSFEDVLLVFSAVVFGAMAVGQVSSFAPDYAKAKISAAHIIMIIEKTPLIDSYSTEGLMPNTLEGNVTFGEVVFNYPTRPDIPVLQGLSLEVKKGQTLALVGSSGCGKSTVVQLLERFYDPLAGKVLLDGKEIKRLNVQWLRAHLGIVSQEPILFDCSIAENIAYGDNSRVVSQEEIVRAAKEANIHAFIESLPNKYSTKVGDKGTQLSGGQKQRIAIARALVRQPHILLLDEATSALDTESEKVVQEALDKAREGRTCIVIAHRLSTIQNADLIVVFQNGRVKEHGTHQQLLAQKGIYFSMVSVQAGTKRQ

Structure (SMILES)	Ratio [3]	fractional inhibitory concentration index (FICI) [1]	fractional inhibitory concentration index (FICI) [2]	fractional inhibitory concentration index (FICI) [4]	fractional inhibitory concentration index (FICI) [5]	fractional inhibitory concentration index (FICI) [6]	fractional inhibitory concentration index (FICI) [7]
CC(C)(O)CC[C@@H](O)[C@](C)(O)[C@H]1CC[C@@]2(O)C3=CC(=O)[C@@H]4C[C@@H](O)CC[C@]4(C)[C@H]3CC[C@]12C	0.55	–	–	–	2.26	1.48	1.05
CC(C)(O)CC[C@@H](OC(=O)c1ccccc1)[C@](C)(O)[C@H]1CC[C@@]2(O)C3=CC(=O)[C@@H]4C[C@@H](O)[C@@H](O)C[C@]4(C)[C@H]3CC[C@]12C	2.18	–	–	–	0.32	0.43	0.58
CC(=O)O[C@H]1CC[C@@]2(C)[C@@H](C1)C(=O)C=C1[C@@H]2CC[C@]2(C)[C@@H]([C@H](C)[C@@H](CCC(C)(C)OC(C)=O)OC(C)=O)CC[C@@]12O	25.07	0.23	0.14	0.41	–	–	–
CC(C)(O)CC[C@H]1OC(C)(C)O[C@]1(C)[C@H]1CC[C@@]2(O)C3=CC(=O)[C@@H]4C[C@@H](O)[C@@H](O)C[C@]4(C)[C@H]3CC[C@]12C	1.53	0.54	0.35	0.84	–	–	–
CC(C)CC[C@H]1OC(C)(C)O[C@]1(C)[C@H]1CC[C@@]2(O)C3=CC(=O)[C@@H]4C[C@@H](O)[C@@H](O)C[C@]4(C)[C@H]3[C@H](O)C[C@]12C	1.93	0.25	0.13	0.52	–	–	–
CC(O)(CO)CC[C@H]1OC(C)(C)O[C@]1(C)[C@H]1CC[C@@]2(O)C3=CC(=O)[C@]4(O)C[C@@H](O)[C@@H](O)C[C@]4(C)[C@H]3CC[C@]12C (some centres undefined)	13.32	–	–	–	0.062	0.16	0.42
CC1(CC[C@H]2OC(C)(C)O[C@]2(C)[C@H]2CC[C@@]3(O)C4=CC(=O)[C@@H]5C[C@H]6OC(C)(C)O[C@H]6C[C@]5(C)[C@H]4CC[C@]23C)COC(C)(C)O1 (some centres undefined)	24.39	0.16	0.12	0.23	–	–	–
CC(C)CC[C@H]1OC(C)(C)O[C@]1(C)[C@H]1CC[C@@]2(O)C3=CC(=O)[C@@H]4C[C@H]5OC(C)(C)O[C@H]5C[C@]4(C)[C@H]3[C@H](O)C[C@]12C	46.49	0.14	0.12	0.18	–	–	–
CC(C)CC[C@H]1OC(C)(C)O[C@]1(C)[C@H]1CC[C@@]2(O)C3=CC(=O)[C@@H]4C[C@H]5OC(C)(C)O[C@H]5C[C@]4(C)C3=CC[C@]12C	41.15	0.14	0.1	0.19	–	–	–
CC[C@H](C[C@H]1OC(C)(C)O[C@]1(C)[C@H]1CC[C@@]2(O)C3=CC(=O)[C@@H]4C[C@H]5OC(C)(C)O[C@H]5C[C@]4(C)[C@H]3CC[C@]12C)C(C)(C)O	26.53	0.11	0.068	0.19	–	–	–
CC(C)(O)CC[C@@H](O)[C@](C)(O)[C@H]1CC[C@@]2(O)C3=CC(=O)[C@]4(O)C[C@@H](O)[C@@H](O)C[C@]4(C)[C@H]3CC[C@]12C [POLYPODINE B]	0.77	0.8	0.58	1.11	–	–	–

Now from value to molecule, other results behind:

Ratio [3]	Structure (SMILES)	fractional inhibitory concentration index (FICI) [1]	fractional inhibitory concentration index (FICI) [2]	fractional inhibitory concentration index (FICI) [4]	fractional inhibitory concentration index (FICI) [5]	fractional inhibitory concentration index (FICI) [6]	fractional inhibitory concentration index (FICI) [7]
2.53	CC(C)(O)CC[C@H]1OC(C)(C)O[C@]1(C)[C@H]1CC[C@@]2(O)C3=CC(=O)[C@@H]4C[C@H]5OC(C)(C)O[C@H]5[C@@H](O)[C@]4(C)[C@H]3CC[C@]12C	0.49	0.24	1.23	–	–	–
0.66	CC(C)(O)CCC[C@](C)(O)[C@H]1CC[C@@]2(O)C3=CC(=O)[C@@H]4C[C@@H](O)[C@@H](O)[C@@H](O)[C@]4(C)[C@H]3CC[C@]12C	–	–	–	0.6	0.9	1.37
1.43	C=C(C)CC[C@@H](O)[C@](C)(O)[C@H]1CC[C@@]2(O)C3=CC(=O)[C@@H]4C[C@@H](O)[C@@H](O)C[C@]4(C)C3=CC[C@]12C	–	–	–	0.43	0.85	1.75
0.88	C=C(CCCC(C)(C)O)[C@H]1CC[C@@]2(O)C3=CC(=O)[C@@H]4C[C@@H](O)[C@@H](O)C[C@]4(C)[C@H]3CC[C@]12C	–	–	–	0.53	0.71	1.05
1.25	CC(=O)O[C@H]1C[C@@]2(C)[C@@H](C[C@H]1OC(C)=O)C(=O)C=C1[C@@H]2CC[C@]2(C)[C@@H]([C@@](C)(O)[C@@H](CCC(C)(C)O)OC(C)=O)CC[C@@]12O	–	–	–	0.7	0.91	1.26
0.84	CC(=O)O[C@H]1C[C@]2(C)[C@H]3CC[C@]4(C)[C@@H]([C@@](C)(O)[C@@H](CCC(C)(C)O)OC(C)=O)CC[C@@]4(O)C3=CC(=O)[C@]2(O)C[C@H]1O	–	–	–	0.6	0.86	1.22
0.97	CC(=O)O[C@H]1CC[C@@]2(C)[C@@H](C1)C(=O)C=C1[C@@H]2CC[C@]2(C)[C@@H]([C@H](C)[C@@H](CCC(C)(C)O)OC(C)=O)CC[C@@]12O	0.86	0.5	1.5	–	–	–
47.95	CC(=O)O[C@H]1C[C@]2(C)[C@H]3CC[C@]4(C)[C@@H]([C@@](C)(O)[C@@H](CCC(C)(C)O)OC(C)=O)CC[C@@]4(O)C3=CC(=O)[C@]2(O)C[C@H]1OC(C)=O	–	–	–	0.26	0.3	0.35
8.55	CC(=O)O[C@H]1C[C@@]2(C)[C@@H](C[C@H]1OC(C)=O)C(=O)C=C1[C@@H]2CC[C@]2(C)[C@@H]([C@@](C)(O)[C@@H](CCC(C)(C)OC(C)=O)OC(C)=O)CC[C@@]12O	0.29	0.13	0.73	–	–	–
1.14	CC(C)(O)CC[C@H]1OC(C)(C)O[C@]1(C)[C@H]1CC[C@@]2(O)C3=CC(=O)[C@@H]4C[C@@H](O)[C@@H](O)[C@@H](O)[C@]4(C)[C@H]3CC[C@]12C	–	–	–	0.23	0.51	1.16
2.43	CC(C)(O)CC[C@H]1OC(C)(C)O[C@]1(C)[C@H]1CC[C@@]2(O)C3=CC(=O)[C@@H]4C[C@@H](O)[C@H]5OC(C)(C)O[C@H]5[C@]4(C)[C@H]3CC[C@]12C	0.42	0.28	0.66	–	–	–
7.01	CC(C)(O)CC[C@H]1OC(C)(C)O[C@]1(C)[C@H]1CC[C@@]2(O)C3=CC(=O)[C@@H]4C[C@@H](O)CC[C@]4(C)[C@H]3CC[C@]12C	0.28	0.091	0.88	–	–	–
1.76	CC(C)(O)CC[C@@H](O)[C@](C)(O)[C@H]1CC[C@@]2(O)C3=CC(=O)[C@@H]4C[C@@H](O)[C@@H](O)C[C@]4(C)[C@H]3CC[C@]12C [20-HYDROXYECDYSONE]	2.02	2.04	2	–	–	–
0.7	C=C(C)C(C[C@@H](O)[C@](C)(O)[C@H]1CC[C@@]2(O)C3=CC(=O)[C@]4(O)C[C@@H](O)[C@@H](O)C[C@]4(C)[C@H]3CC[C@]12C)C(C)O (some centres undefined) [AJUGASTERONE B]	–	–	–	0.3	0.59	1.21
0.63	CCC1C[C@H]([C@](C)(O)[C@H]2CC[C@@]3(O)C4=CC(=O)[C@@H]5C[C@@H](O)[C@@H](O)C[C@]5(C)[C@H]4CC[C@]23C)OC(=O)C1C (some centres undefined) [CAPITASTERONE]	–	–	–	0.49	0.74	1.35

Source: ChEMBL document CHEMBL2086273, “Significant activity of ecdysteroids on the resistance to doxorubicin in mammalian cancer cells expressing the human ABCB1 transporter” (J Med Chem, 2012)
